From ChEMBL document CHEMBL3525905, “Brain distribution and bioavailability of elacridar after different routes of administration in the mouse” (Drug Metab Dispos, 2012)

Assays:
[1] = Terminal half life in wild type FVB mouse plasma at 100 mg/kg, po; assay type: ADME, organism-based; set-up: dose 100 mg/kg, route oral; conditions: read-out: beta t1/2 (converted)
[2] = Terminal half life in wild type FVB mouse brain at 100 mg/kg, po; assay type: ADME, organism-based; set-up: dose 100 mg/kg, route oral; conditions: read-out: beta t1/2 (converted)
[3] = Terminal half life in wild type FVB mouse brain at 100 mg/kg, ip; assay type: ADME, organism-based; set-up: dose 100 mg/kg, route intraperitoneal; conditions: read-out: beta t1/2 (converted)
[4] = Terminal half life in wild type FVB mouse plasma at 100 mg/kg, ip; assay type: ADME, organism-based; set-up: dose 100 mg/kg, route intraperitoneal; conditions: read-out: beta t1/2 (converted)
[5] = Terminal half life in wild type FVB mouse plasma at 2.5 mg/kg, iv; assay type: ADME, organism-based; set-up: dose 2.5 mg/kg, route intravenous; conditions: read-out: beta t1/2 (converted)
[6] = Terminal half life in wild type FVB mouse brain at 2.5 mg/kg, iv; assay type: ADME, organism-based; set-up: dose 2.5 mg/kg, route intravenous; conditions: read-out: beta t1/2 (converted)
[7] = Cmax in wild type FVB mouse plasma at 100 mg/kg, ip; assay type: ADME, organism-based; set-up: dose 100 mg/kg, route intraperitoneal
[8] = Cmax in wild type FVB mouse brain at 100 mg/kg, ip; assay type: ADME, organism-based; set-up: dose 100 mg/kg, route intraperitoneal
[9] = Cmax in wild type FVB mouse plasma at 2.5 mg/kg, iv; assay type: ADME, organism-based; set-up: dose 2.5 mg/kg, route intravenous
[10] = Cmax in wild type FVB mouse brain at 2.5 mg/kg, iv; assay type: ADME, organism-based; set-up: dose 2.5 mg/kg, route intravenous
[11] = Cmax in wild type FVB mouse plasma at 100 mg/kg, po; assay type: ADME, organism-based; set-up: dose 100 mg/kg, route oral
[12] = Cmax in wild type FVB mouse brain at 100 mg/kg, po; assay type: ADME, organism-based; set-up: dose 100 mg/kg, route oral
[13] = Tmax in wild type FVB mouse plasma at 2.5 mg/kg, iv; assay type: ADME, organism-based; set-up: dose 2.5 mg/kg, route intravenous
[14] = Tmax in wild type FVB mouse brain at 2.5 mg/kg, iv; assay type: ADME, organism-based; set-up: dose 2.5 mg/kg, route intravenous
[15] = Tmax in wild type FVB mouse plasma at 100 mg/kg, ip; assay type: ADME, organism-based; set-up: dose 100 mg/kg, route intraperitoneal
[16] = Tmax in wild type FVB mouse brain at 100 mg/kg, ip; assay type: ADME, organism-based; set-up: dose 100 mg/kg, route intraperitoneal
[17] = Tmax in wild type FVB mouse plasma at 100 mg/kg, po; assay type: ADME, organism-based; set-up: dose 100 mg/kg, route oral
[18] = Tmax in wild type FVB mouse brain at 100 mg/kg, po; assay type: ADME, organism-based; set-up: dose 100 mg/kg, route oral
[19] = AUC (0 to last) in wild type FVB mouse plasma at 2.5 mg/kg, iv; assay type: ADME, organism-based; set-up: time 0 - last, dose 2.5 mg/kg, route intravenous
[20] = AUC (0 to last) in wild type FVB mouse brain at 2.5 mg/kg, iv; assay type: ADME, organism-based; set-up: time 0 - last, dose 2.5 mg/kg, route intravenous
[21] = AUC (0 to last) in wild type FVB mouse plasma at 100 mg/kg, ip; assay type: ADME, organism-based; set-up: time 0 - last, dose 100 mg/kg, route intraperitoneal
[22] = AUC (0 to last) in wild type FVB mouse brain at 100 mg/kg, ip; assay type: ADME, organism-based; set-up: time 0 - last, dose 100 mg/kg, route intraperitoneal
[23] = AUC (0 to last) in wild type FVB mouse plasma at 100 mg/kg, po; assay type: ADME, organism-based; set-up: time 0 - last, dose 100 mg/kg, route oral
[24] = AUC (0 to last) in wild type FVB mouse brain at 100 mg/kg, po; assay type: ADME, organism-based; set-up: time 0 - last, dose 100 mg/kg, route oral
[25] = test system: Plasma; experiment: AUC (0 to infinity) in wild type FVB mouse plasma at 2.5 mg/kg, iv; assay type: ADME, organism-based; set-up: time infinity, dose 2.5 mg/kg, route intravenous; conditions: in vivo
[26] = AUC (0 to infinity) in wild type FVB mouse brain at 2.5 mg/kg, iv; assay type: ADME, organism-based; set-up: time infinity, dose 2.5 mg/kg, route intravenous
[27] = test system: Plasma; experiment: AUC (0 to infinity) in wild type FVB mouse plasma at 100 mg/kg, ip; assay type: ADME, organism-based; set-up: time infinity, dose 100 mg/kg, route intraperitoneal; conditions: in vivo
[28] = AUC (0 to infinity) in wild type FVB mouse brain at 100 mg/kg, ip; assay type: ADME, organism-based; set-up: dose 100 mg/kg, route intraperitoneal, time infinity
[29] = AUC (0 to infinity) in wild type FVB mouse plasma at 100 mg/kg, po; assay type: ADME, organism-based; set-up: time infinity, dose 100 mg/kg, route oral
[30] = AUC (0 to infinity) in wild type FVB mouse brain at 100 mg/kg, po; assay type: ADME, organism-based; set-up: time infinity, dose 100 mg/kg, route oral
[31] = Ratio of AUC in brain to plasma in wild type FVB mouse plasma at 2.5 mg/kg, iv; assay type: ADME, organism-based; set-up: dose 2.5 mg/kg, route intravenous; conditions: brain and plasma
[32] = Ratio of AUC in brain to plasma in wild type FVB mouse plasma at 100 mg/kg, ip; assay type: ADME, organism-based; set-up: dose 100 mg/kg, route intraperitoneal; conditions: brain and plasma
[33] = Ratio of AUC in brain to plasma in wild type FVB mouse plasma at 100 mg/kg, po; assay type: ADME, organism-based; set-up: dose 100 mg/kg, route oral; conditions: brain and plasma
[34] = Apparent plasma clearance in wild type FVB mouse plasma at 100 mg/kg, ip; assay type: ADME, organism-based; set-up: dose 100 mg/kg, route intraperitoneal
[35] = Apparent plasma clearance in wild type FVB mouse at 100 mg/kg, po; assay type: ADME, organism-based; set-up: dose 100 mg/kg, route oral
[36] = Apparent oral volume of distribution in wild type FVB mouse at 100 mg/kg, po; assay type: ADME, organism-based; set-up: dose 100 mg/kg, route oral; conditions: plasma
[37] = Apparent oral volume of distribution in wild type FVB mouse plasma at 100 mg/kg, ip; assay type: ADME, organism-based; set-up: dose 100 mg/kg
[38] = test system: Plasma; experiment: Apparent plasma clearance in wild type FVB mouse plasma at 2.5 mg/kg, iv; assay type: ADME, organism-based; set-up: dose 2.5 mg/kg, route intravenous; conditions: in vivo
[39] = Apparent oral volume of distribution in wild type FVB mouse plasma at 2.5 mg/kg, iv; assay type: ADME, organism-based; set-up: dose 2.5 mg/kg
[40] = Oral bioavailability in wild type FVB mouse at 100 mg/kg; assay type: ADME, organism-based; conditions: plasma
[41] = test system: Plasma; experiment: Bioavailability in wild type FVB mouse at 100 mg/kg, ip; assay type: ADME, organism-based; conditions: in vivo
[42] = test system: Plasma; experiment: Bioavailability in wild type FVB mouse at 2.5 mg/kg, iv; assay type: ADME, organism-based; conditions: in vivo
[43] = […] Kp, ratio of AUC in brain to plasma in wild type FVB mouse plasma at 10 mg/kg, ip; assay type: ADME, organism-based; set-up: dose 10 mg/kg, route intraperitoneal; conditions: brain and plasma
[44] = Lipophilicity, logP of the compound; assay type: physicochemical; conditions: octanol/water

A half-life [1] of 20 h, a half-life [2] of 16 h and a half-life [3] of 9.2 h were found for `COc1cc2c(cc1OC)CN(CCc1ccc(NC(=O)c3cccc4c(=O)c5cccc(OC)c5[nH]c34)cc1)CC2` [ELACRIDAR] in this work. It also gave a half-life [4] of 4.3 h, a half-life [5] of 4.4 h and a half-life [6] of 1.5 h. The Cmax [7] was 295 ng/mL, the Cmax [8] was 61 ng/mL and the Cmax [9] was 564 ng/mL. The Cmax [10] was 1050 ng/mL, the Cmax [11] was 780 ng/mL and the Cmax [12] was 4340 ng/mL. For the same compound, the Tmax [13] was 0.5 h, the Tmax [14] was 0.5 h and the Tmax [15] was 0.5 h. For the same compound, the Tmax [16] was 4 h, the Tmax [17] was 8 h and the Tmax [18] was 8 h. For the same compound, the AUC(0-t) [19] was 2310 ng·h/mL, the AUC(0-t) [20] was 2140 ng·h/mL and the AUC(0-t) [21] was 1060 ng·h/mL. The AUC(0-t) [22] was 332 ng·h/mL, the AUC(0-t) [23] was 13200 ng·h/mL and the AUC(0-t) [24] was 64800 ng·h/mL. For the same compound, the AUC [25] was 161.4 µg·min/mL, the AUC(0-inf) [26] was 2190 ng·h/mL and the AUC [27] was 90.3 µg·min/mL. It also gave an AUC(0-inf) [28] of 725 ng·h/mL, an AUC(0-inf) [29] of 24300 ng·h/mL and an AUC(0-inf) [30] of 105000 ng·h/mL. The Kp [31] was 0.82, the Kp [32] was 0.48 and the Kp [33] was 4.31. The CL/F [34] was 33.2 mL/min, the CL/F [35] was 2.05 mL/min and the Vd/F [36] was 3.5 L. For the same compound, the Vd/F [37] was 12.3 L, the CL/F [38] was 0.46 mL/min and the Vd/F [39] was 0.17 L. It also gave a bioavailability [40] of 22%, an F [41] of 13% and an F [42] of 100%. The Kp [43] was 0.0784 and the logP [44] was 5.67.
